# Source: ChEMBL document CHEMBL4420062, “Tfpi inhibitors and methods of use” (2013)
# Where a SMILES comes first, the peptide text is derived from it. [ ]: non-standard residue; d: D form. Aib = CC(C)(N)C(=O)O
# Test system: not listed separately
# Assay: Stability in mouse plasma assessed as parent compound remaining after 24 hrs
# Format: ADME, cell-free
# Details: read-out: Stability
row,Compound,remaining at 24 h
1,CC(=O)N[C@@H](Cc1ccccc1)C(=O)N[C@@H](CCC(N)=O)C(=O)N[C@@H](CO)C(=O)N[C@@H](CCCCN)C(=O)N1CCC[C@@H]1C(=O)N[C@@H](CC(N)=O)C(=O)N[C@H](C(=O)N[C@@H](Cc1cnc[nH]1)C(=O)N[C@H](C(=O)N[C@@H](CC(=O)O)C(=O)NCC(=O)N[C@@H](Cc1ccc(O)cc1)C(=O)N[C@@H](Cc1cccc2ccccc12)C(=O)N[C@@H](CCC(=O)O)C(=O)N[C@@H](CCCNC(=N)N)C(=O)N[C@@H](CC(C)C)C(=O)NC(C)(C)C(=O)N[C@@H](C)C(=O)N[C@@H](CCCCN)C(=O)N[C@@H](CC(C)C)C(N)=O)C(C)C)C(C)C,6.3%
2,CC(=O)N[C@@H](Cc1ccccc1)C(=O)N[C@@H](CCC(N)=O)C(=O)N[C@@H](CO)C(=O)N[C@@H](CCCCN)C(=O)N1CCC[C@@H]1C(=O)N[C@@H](CC(N)=O)C(=O)N[C@H](C(=O)N[C@@H](Cc1cnc[nH]1)C(=O)N[C@H](C(=O)N[C@@H](CC(=O)O)C(=O)N[C@H](C)C(=O)N[C@@H](Cc1ccc(O)cc1)C(=O)N[C@@H](Cc1ccccc1)C(=O)N[C@@H](CCC(=O)O)C(=O)N[C@@H](CCCNC(=N)N)C(=O)N[C@H]1CCSSCC[C@@H](C(N)=O)NC(=O)[C@H](CCCCN)NC(=O)[C@H](C)NC(=O)C(C)(C)NC1=O)C(C)(C)C)C(C)C,65.5%
3,CCC(CC)(NC(=O)[C@H](CC(C)C)NC(=O)[C@H](CCCNC(=N)N)NC(=O)[C@H](CCC(=O)O)NC(=O)[C@H](Cc1ccccc1)NC(=O)[C@H](Cc1ccc(O)cc1)NC(=O)[C@@H](C)NC(=O)[C@H](CC(=O)O)NC(=O)[C@@H](NC(=O)[C@H](Cc1cnc[nH]1)NC(=O)[C@@H](NC(=O)[C@H](CC(N)=O)NC(=O)[C@H]1CCCN1C(=O)[C@H](CCCCN)NC(=O)[C@H](CO)NC(=O)[C@H](CCC(N)=O)NC(=O)[C@H](Cc1ccccc1)NC(C)=O)C(C)C)C(C)(C)C)C(=O)N[C@@H](C)C(=O)N[C@@H](CCCCN)C(=O)N[C@@H](CC(C)C)C(N)=O,62.9%
4,COc1ccc(C[C@H](NC(=O)CNC(=O)[C@H](CC(=O)O)NC(=O)[C@@H](NC(=O)[C@H](Cc2cnc[nH]2)NC(=O)[C@@H](NC(=O)[C@H](CC(N)=O)NC(=O)[C@H]2CCCN2C(=O)[C@H](CCCCN)NC(=O)[C@H](CO)NC(=O)[C@H](CCC(N)=O)NC(=O)[C@H](Cc2ccccc2)NC(C)=O)C(C)C)C(C)C)C(=O)N[C@@H](Cc2ccccc2)C(=O)N[C@@H](CCC(=O)O)C(=O)N[C@@H](CCCNC(=N)N)C(=O)N[C@@H](CC(C)C)C(=O)NC(C)(C)C(=O)N[C@@H](C)C(=O)N[C@@H](CCCCN)C(=O)N[C@@H](CC(C)C)C(N)=O)cc1,7.3%

# Molecular target: T1, Tissue factor pathway inhibitor (Homo sapiens, UniProt P10646)
# T1 sequence (P10646 whole entry): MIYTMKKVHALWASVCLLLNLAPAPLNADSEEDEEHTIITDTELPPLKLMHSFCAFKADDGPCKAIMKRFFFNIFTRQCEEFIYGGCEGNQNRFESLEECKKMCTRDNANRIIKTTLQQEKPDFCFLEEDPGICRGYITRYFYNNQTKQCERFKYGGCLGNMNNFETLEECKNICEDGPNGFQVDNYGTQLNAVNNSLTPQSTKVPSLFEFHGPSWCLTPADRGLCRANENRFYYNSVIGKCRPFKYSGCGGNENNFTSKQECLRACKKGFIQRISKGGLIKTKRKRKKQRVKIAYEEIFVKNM
# Assay: Binding affinity to TFPI (unknown origin) incubated for […] using tracer peptide JBT0131 by screening ELISA
# Details: not given
row,Compound,IC50
1,Ac-FQSKKNVFVFGYFERFRAKL-NH2,> 5 µM
2,Ac-FQSKKNVFDFGYFERLRAKL-NH2,> 5 µM
3,Ac-FQSKKNVFVFGYFERLRFKL-NH2,> 5 µM
4,Ac-FQSKKNVFVFGDFERLRAKL-NH2,> 5 µM
5,Ac-FQSKKNVFVFGYFEFLRAKL-NH2,> 5 µM
6,Ac-FQSKKNVFLFGYFERLRAKL-NH2,> 5 µM
7,Ac-FQSFKNVFVFGYFERLRAKL-NH2,> 5 µM
8,Ac-FQSKKNVFVFLYFERLRAKL-NH2,> 5 µM
9,Ac-FQSKKNVFVFGYFEGLRAKL-NH2,> 5 µM
10,CC(=O)N[C@@H](Cc1ccccc1)C(=O)N[C@@H](CCC(N)=O)C(=O)N[C@@H](CO)C(=O)N[C@@H](CCCCN)C(=O)NCC(=O)N[C@@H](CC(N)=O)C(=O)N[C@H](C(=O)N[C@@H](Cc1ccccc1)C(=O)N[C@H](C(=O)N[C@@H](CC(=O)O)C(=O)NCC(=O)N[C@@H](Cc1ccc(O)cc1)C(=O)N[C@@H](Cc1ccccc1)C(=O)N[C@@H](CCC(=O)O)C(=O)N[C@@H](CCCNC(=N)N)C(=O)N[C@@H](CC(C)C)C(=O)NC(C)(C)C(=O)N[C@@H](C)C(=O)NC(C)(C)C(=O)N[C@@H](CC(C)C)C(N)=O)C(C)C)C(C)C (Ac-FQSKGNVFVDGYFERL[Aib]A[Aib]L-NH2),> 5 µM
11,Ac-FQSKKNVFVFGYFERLRAFL-NH2,> 5 µM
12,Ac-FQSKKNVFGFGYFERLRAKL-NH2,> 5 µM
13,CC(=O)N[C@@H](Cc1ccccc1)C(=O)N[C@@H](CCC(N)=O)C(=O)N[C@@H](CO)C(=O)N[C@@H](CCCCN)C(=O)NCC(=O)N[C@@H](CC(N)=O)C(=O)N[C@H](C(=O)N[C@@H](Cc1ccccc1)C(=O)N[C@H](C(=O)N[C@@H](CC(=O)O)C(=O)NCC(=O)NC(C)(C)C(=O)NC(C)(C)C(=O)N[C@@H](C)C(=O)N[C@@H](CCCCN)C(=O)N[C@@H](CC(C)C)C(N)=O)C(C)C)C(C)C (Ac-FQSKGNVFVDG[Aib][Aib]AKL-NH2),> 5 µM
14,Ac-FQSKKNVFVFGYFERDRAKL-NH2,> 5 µM
15,Ac-FQLKKNVFVFGYFERLRAKL-NH2,> 5 µM
16,Ac-FQSKKNVFVFGFFERLRAKL-NH2,> 5 µM
17,Ac-FQSKKFVFVFGYFERLRAKL-NH2,> 5 µM
18,CC(=O)N[C@@H](Cc1ccccc1)C(=O)N[C@@H](CCC(N)=O)C(=O)N[C@@H](CO)C(=O)N[C@@H](CCCCN)C(=O)NCC(=O)N[C@@H](CC(N)=O)C(=O)N[C@H](C(=O)N[C@@H](Cc1ccccc1)C(=O)N[C@H](C(=O)N[C@@H](CC(=O)O)C(=O)NCC(=O)N[C@@H](Cc1ccc(O)cc1)C(=O)N[C@@H](Cc1ccccc1)C(=O)N[C@@H](CCC(=O)O)C(=O)NC(C)(C)C(=O)N[C@@H](CC(C)C)C(=O)NC(C)(C)C(=O)N[C@@H](C)C(=O)N[C@@H](CCCCN)C(=O)N[C@@H](CC(C)C)C(N)=O)C(C)C)C(C)C (Ac-FQSKGNVFVDGYFE[Aib]L[Aib]AKL-NH2),> 5 µM
19,Ac-FQSKKNVFVFGYFERLFAKL-NH2,> 5 µM

# Further lines, results first:
row,IC50,Compound
1,> 1.67 µM,Ac-FQSKLNVFVFGYFERLRAKL-NH2
2,> 5 µM,Ac-FQSKKNDFVFGYFERLRAKL-NH2
3,> 5 µM,Ac-FQSKKNVFVFGGFERLRAKL-NH2
4,> 5 µM,Ac-FQSKKNVFVFGYFERLDAKL-NH2
5,> 5 µM,Ac-FQSKKNYDVFGYFERLRAKL-NH2
6,> 5 µM,Ac-FQSKKLVFVFGYFERLRAKL-NH2
7,> 5 µM,Ac-FFSKKNVFVFGYFERLRAKL-NH2
8,1 to 5 µM,Ac-FLSKKNVFVFGYFERLRAKL-NH2
9,< 0.05 µM,Ac-FQSKHHVFVDGYFERLCAKL-NH2
10,> 5 µM,CC(=O)N[C@@H](Cc1ccccc1)C(=O)N[C@@H](CCC(N)=O)C(=O)N[C@@H](CO)C(=O)N[C@@H](CCCCN)C(=O)NCC(=O)N[C@@H](CC(N)=O)C(=O)N[C@H](C(=O)NC(C)(C)C(=O)N[C@H](C(=O)N[C@@H](CC(=O)O)C(=O)NCC(=O)N[C@@H](Cc1ccc(O)cc1)C(=O)N[C@@H](Cc1ccccc1)C(=O)N[C@@H](CCC(=O)O)C(=O)N[C@@H](CCCNC(=N)N)C(=O)N[C@@H](CC(C)C)C(=O)NC(C)(C)C(=O)N[C@@H](C)C(=O)N[C@@H](CCCCN)C(=O)N[C@@H](CC(C)C)C(N)=O)C(C)C)C(C)C (Ac-FQSKGNV[Aib]VDGYFERL[Aib]AKL-NH2)
11,> 5 µM,Ac-FQSKKNVFVFGLFERLRAKL-NH2
12,> 1.67 µM,Ac-FDSKKNVFVFGYFERLRAKL-NH2
13,> 1.67 µM,Ac-FQSKKNVFVFFYFERLRAKL-NH2
14,> 5 µM,Ac-FQSDKNVFVFGYFERLRAKL-NH2
15,> 0.5 µM,CCCCCCCCCCCCCC(=O)NCCCC[C@H](NC(=O)[C@H](CO)NC(=O)[C@H](CCC(N)=O)NC(=O)[C@H](Cc1ccccc1)NC(=O)CCCCC)C(=O)N1CCC[C@@H]1C(=O)N[C@@H](CO)C(=O)N[C@H](C(=O)N[C@@H](Cc1cnc[nH]1)C(=O)N[C@H](C(=O)N[C@@H](CC(=O)O)C(=O)N[C@H](C)C(=O)N[C@@H](Cc1ccc(O)cc1)C(=O)N[C@@H](Cc1ccccc1)C(=O)N[C@@H](CCC(=O)O)C(=O)N[C@@H](CCCNC(=N)N)C(=O)N[C@@H](CC(C)C)C(=O)NC(C)(C)C(=O)N[C@@H](C)C(=O)N[C@@H](CCCCN)C(=O)N[C@@H](CC(C)C)C(N)=O)C(C)(C)C)C(C)C
16,> 5 µM,Ac-FQFKKNVFVFGYFERLRAKL-NH2
17,> 1.67 µM,Ac-FQSLKNVFVFGYFERLRAKL-NH2
18,< 0.05 µM,Ac-FQSKGNVFVDGYFERLRMKL-NH2
19,> 0.5 µM,CCCCCCCCCCCCCC(=O)NCCCC[C@H](NC(=O)[C@H]1CCCN1C(=O)[C@H](CCCCN)NC(=O)[C@H](CO)NC(=O)[C@H](CCC(N)=O)NC(=O)[C@H](Cc1ccccc1)NC(=O)CCCCC)C(=O)N[C@H](C(=O)N[C@@H](Cc1cnc[nH]1)C(=O)N[C@H](C(=O)N[C@@H](CC(=O)O)C(=O)N[C@H](C)C(=O)N[C@@H](Cc1ccc(O)cc1)C(=O)N[C@@H](Cc1ccccc1)C(=O)N[C@@H](CCC(=O)O)C(=O)N[C@@H](CCCNC(=N)N)C(=O)N[C@@H](CC(C)C)C(=O)NC(C)(C)C(=O)N[C@@H](C)C(=O)N[C@@H](CCCCN)C(=O)N[C@@H](CC(C)C)C(N)=O)C(C)(C)C)C(C)C
20,> 0.5 µM,CCCCCCCCCCCCCC(=O)NCCCC[C@H](NC(=O)[C@@H](NC(=O)[C@H](Cc1cnc[nH]1)NC(=O)[C@@H](NC(=O)[C@H](CO)NC(=O)[C@H]1CCCN1C(=O)[C@H](CCCCN)NC(=O)[C@H](CO)NC(=O)[C@H](CCC(N)=O)NC(=O)[C@H](Cc1ccccc1)NC(=O)CCCCC)C(C)C)C(C)(C)C)C(=O)N[C@H](C)C(=O)N[C@@H](Cc1ccc(O)cc1)C(=O)N[C@@H](Cc1ccccc1)C(=O)N[C@@H](CCC(=O)O)C(=O)N[C@@H](CCCNC(=N)N)C(=O)N[C@@H](CC(C)C)C(=O)NC(C)(C)C(=O)N[C@@H](C)C(=O)N[C@@H](CCCCN)C(=O)N[C@@H](CC(C)C)C(N)=O
21,0.556 to 1.67 µM,CC(=O)N[C@H](CC(C)C)C(=O)N[C@H](CCCCN)C(=O)N[C@H](C)C(=O)N[C@H](CCCNC(=N)N)C(=O)N[C@H](CC(C)C)C(=O)N[C@H](CCCNC(=N)N)C(=O)N[C@H](CCC(=O)O)C(=O)N[C@H](Cc1ccccc1)C(=O)N[C@H](Cc1ccc(O)cc1)C(=O)NCC(=O)N[C@H](Cc1ccccc1)C(=O)N[C@@H](C(=O)N[C@H](Cc1ccccc1)C(=O)N[C@@H](C(=O)N[C@H](CC(N)=O)C(=O)N[C@H](CCCCN)C(=O)N[C@H](CCCCN)C(=O)N[C@H](CO)C(=O)N[C@H](CCC(N)=O)C(=O)N[C@H](Cc1ccccc1)C(N)=O)C(C)C)C(C)C
22,< 0.05 µM,Ac-FQSKGNVFVDGYFERLRRKL-NH2
